Reference: patent US10323254B2, “Method for regulating plant growth” (RIKEN, priority 2015, dated 2019)
“Also recorded” adds a separate entry of the source.

Legend:
Format in all cases: in vivo, Arabidopsis thaliana
BSS1 = assay: qRT-PCR of BSS1 expression in wild-type seedlings; conditions: WT seedlings on medium with different concentrations of Brz or BL, 7 days; dose-dependent
Description: The data represent the mean±s.d. from 4 independent experiments. […] The samples were grown in the same conditions as FIG. 4A for 3 days (scale bar: 5 mm). FIGS. 4C to 4E show the results of determining the BSS1 expression level by qRT-PCR. Wild-type (WT) seedlings grown on medium with different concentrations of Brz (FIG. 4C) and BL (FIG. 4D) in the light for 7 days and dark-grown seedlings exposed to light for 0-7 days (Figure E) were used for analysis of the BSS1 expression level. The data represent the mean±s.d. of 4 independent experiments.
Approximately 10,000 RIKEN GSC Arabidopsis activation-tagging lines (Nakazawa et al., 2003, Activation tagging, a novel tool to dissect the functions of a gene family. Plant J. 34: 741-750) were screened on ½ MS medium containing 3 μM Brz (Asami et al., 2000, Characterization of brassinazole, a triazole-type brassinosteroid biosynthesis inhibitor, Plant Physiol. 123: 93-100). After growth for 7 days in the dark, seedlings with shorter hypocotyls than those of the controls were identified and transferred to soil. […] First-strand cDNA was synthesized with PrimeScript (Takara) and used in quantitative real-time PCR (qRT-PCR). […]

BSS1-GFP = assay: Fluorescence microscopy of punctate BSS1-GFP in transgenic seedlings; conditions: versus control conditions; for number of punctate BSS1-GFP: seedlings grown on medium with 3 μM Brz or 100 nM BL
[1] = test system: BR-responsive genes (TCH4, BAS1, IAA19, and SAUR-AC1); assay: qRT-PCR of BR-responsive gene expression in seedlings; conditions: wild-type (WT) plants; 7-day-old dark-germinated seedlings; 3 μM Brz or 100 nM BL for 3 hours
Description: The expression level of TCH, BAS1, IAA19, and SAUR-AC1 were analyzed by qRT-PCR in 7-day-old dark-germinated seedlings and treated with medium containing DMSO (Mock), 3 μM Brz (+Brz), or 100 nM BL (+BL) for 3 hours. The data represent the mean±s.d. of 4 independent experiments (**P<0.01, Student's t-test). […] Ten-day-old seedlings grown on medium with Brz were treated with 100 nM BL or mock solution for 3 hours. Total proteins were extracted and analyzed by immunoblotting with an anti-BIL1 antibody. […] The signal intensities of phosphorylated BIL1 (above) and dephosphorylated BIL1 (below) are shown by arrowhead, and each band signal is counted as a percentage relative to the level of phosphorylated BIL1 in WT seedlings.
Total RNA was extracted from plants using an RNeasy Plant Mini Kit (QIAGEN).
The first-strand cDNA was synthesized using PrimeScript (Takara) and was used in qRT-PCR. The qRT-PCR was performed according to the instructions provided for the Thermal Cycler Dice (Takara) using the SYBR Premix ExTaq system (Takara). […]

BIL1-GFP = assay: Fluorescence microscopy of BIL1-GFP localization in root cells; conditions: for punctate BIL1-GFP signals: root cells
Description: The results are presented as the mean±s.d. (n=61, *P<0.01, Student's t-test). […] The results are presented as the mean±s.d. (n=27, *P<0.01, Student's t-test).
The plants that were transformed with the CaMV35S-BSS1-GFP construct BSS1(-GFP)-OX and the CaMV35S-BIL1-GFP construct BIL1-GFP-OX were observed via confocal laser scanning microscopy with a BX60 fluorescence microscope (Olympus) equipped with a Model CSU10 confocal scanner (Yokogawa Electric) and LSM700 (Zeiss).
The images were analyzed using ImageJ software. To measure the ratio of the nuclear and cytosolic signals of BIL1-GFP for each cell, the signal intensities in the nucleus and cytosol were calculated from the mean of the intensity in each area. The nuclear to cytosolic signal ratio was then calculated for each cell. The average nuclear/cytosolic signal ratio and standard error were calculated from measurements of at least 54 cells from each line (FIG. 9B). Line scan measurements from the vacuole to the nucleus through the cytosol were performed, and representative plot profiles of sample measurements are presented in FIG. 5C.

Structure (SMILES) | BSS1 expression (BSS1) | number of punctate BSS1-GFP (BSS1-GFP) | expression of TCH4, BAS1, IAA19, and SAUR-AC1 [1] | diffused BSS1-GFP signal in the cytosol (BSS1-GFP; seedlings grown on medium containing Brz) | enhanced nuclear BIL1-GFP signal (BIL1-GFP; bop1-3 bop2-1 background, root cells of 4-day-old seedlings, 3 μM Brz) | punctate BIL1-GFP signals (BIL1-GFP; bop1-3 bop2-1 plants, treated with 3 μM Brz) | nuclear-to-cytosolic ratio of the BIL1-GFP signal (BIL1-GFP; wild-type background, root cells of 4-day-old seedlings, 3 μM Brz) | punctate BIL1-GFP signals (BIL1-GFP; wild-type background, after 3 μM Brz treatment)
CC(C)[C@H](C)[C@@H](O)[C@H](O)[C@@H](C)[C@H]1CC[C@H]2[C@@H]3COC(=O)[C@H]4C[C@H](O)[C@H](O)C[C@]4(C)[C@H]3CC[C@]12C [BL, brassinolide] | decreased | decreased in number | increased | – | – | – | – | –
CC(O)(c1ccccc1)C(Cc1ccc(Cl)cc1)n1cncn1 (centres unmarked) [Brz, brassinazole] | increased | increased in number | suppressed | reduced | strongly maintained | not detected | decreased | many punctate BIL1-GFP signals in the cytosol; also recorded: observed
